Laboratory results as given in patent publication US20040224884A1, “Methods of screening for apoptosis-controlling agents for bone anabolic therapies and uses thereof” (priority 1998, published 2004).

Experiments:
[1] = system: osteoblastic cells derived from murine calvaria; experiment: Etoposide-induced apoptosis of osteoblastic cells, trypan blue uptake; type: cell-based
Procedure: Osteoblastic cells derived from murine calvaria were pretreated with the sterols for 1 hour before the addition of the pro-apoptotic agent, etoposide. Apoptosis was determined after 6 hours by trypan blue uptake (Jilka et al, J. Bone and Min. Res. 13:793:802, 1998). * indicates p<0.05 versus etoposide alone, by analysis of variance (ANOVA) (Student-Newman-Keuls method).
Osteoblastic cells derived from murine calvaria were pretreated for 1 hour with the pure receptor antagonist ICI182,780 (10^−7 M) before the addition of the test agents (10^−8 M). Apoptosis was induced and quantified as described in FIG. 3. * indicates p<0.05 versus etoposide alone, by ANOVA (Student-Newman-Keuls method).
In this experiment, osteoblastic cells were derived from murine calvaria and were pretreated with the sterols for 1 hour before the addition of the pro-apoptotic agent, etoposide.
In these experiments, cells were pretreated with the indicated concentrations of the various compounds for 1 hour, in the absence or presence of the androgen receptor antagonist flutamide, before the addition of the proapoptotic agent etoposide. Apoptosis was determined after 6 hours by trypan blue uptake as described in FIG. 3.

[2] = system: MLO-Y4 osteocytic cells; experiment: Etoposide-induced apoptosis of MLO-Y4 osteocytic cells, trypan blue uptake; type: cell-based, murine
Procedure: Cells were pretreated with the indicated concentrations of the compounds for 1 hour before the addition of the pro-apoptotic agent etoposide. Apoptosis was determined after 6 hour by trypan blue uptake as described in FIG. 3. * indicates p<0.05 versus etoposide alone, by ANOVA (Student-Newman-Keuls method).
MLO-Y4 cells were pretreated for 1 hour with the pure receptor antagonist ICI182,780 (10^−7 M) before the addition of the test agents (10^−8 M). Apoptosis was induced and quantified as described in FIG. 3. * indicates p<0.05 versus etoposide alone, by ANOVA (Student-Newman-Keuls method).
In this experiment, MLO-Y4 cells were pretreated with the indicated concentrations of the various compounds for 1 h before the addition of the pro-apoptotic agent, etoposide. Apoptosis was determined after 6 h by trypan blue uptake as described in FIG. 3.

[3] = biological target: T1, murine estrogen receptor-beta (mERβ) (Mus musculus, UniProt O08537); experiment: Etoposide-induced apoptosis in HeLa cells stably transfected with mERβ; type: cell-based, human; conditions: 10^−8 M, 1 h; etoposide 5×10^−5 M, 6 hour
T1 construct: expressed in transfected cells
T1 sequence (O08537 whole entry): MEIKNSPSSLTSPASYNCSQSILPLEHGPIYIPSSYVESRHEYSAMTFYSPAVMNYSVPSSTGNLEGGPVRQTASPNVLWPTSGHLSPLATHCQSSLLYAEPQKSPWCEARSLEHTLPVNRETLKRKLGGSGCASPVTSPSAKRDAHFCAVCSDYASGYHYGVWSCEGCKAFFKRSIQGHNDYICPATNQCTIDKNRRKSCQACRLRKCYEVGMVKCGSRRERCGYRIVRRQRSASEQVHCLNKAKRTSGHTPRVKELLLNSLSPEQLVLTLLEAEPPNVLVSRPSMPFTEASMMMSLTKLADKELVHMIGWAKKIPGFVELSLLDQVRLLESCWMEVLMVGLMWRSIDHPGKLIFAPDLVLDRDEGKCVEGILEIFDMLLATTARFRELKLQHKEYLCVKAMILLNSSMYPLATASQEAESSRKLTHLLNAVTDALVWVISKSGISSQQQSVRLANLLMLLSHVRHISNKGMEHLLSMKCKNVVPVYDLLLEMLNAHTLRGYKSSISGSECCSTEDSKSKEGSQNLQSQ
From the text: CMV promoter alone and CMV promoter-driven cDNA for mERα or mErβ were stably transfected into HeLa cells. […] Cells were trypsinized, pelleted and trypan blue positive cells enumerated.
In this experiment, instead of calvaria cells, human HeLa cells which contain undetectable, if any, estrogen receptor were used. HeLa cells were stably transfected with either a CMV promoter-driven cDNA for the murine estrogen receptor-alpha (mERα) or a CMV promoter-driven cDNA for the murine estrogen receptor-beta (mERβ). […] Cells were trypsinized, pelleted and trypan blue positive cells were enumerated.

[4] = system: extracellular signal regulated kinases (ERKs) 1 and 2; experiment: Western blot of phosphorylated ERK1/2 in MLO-Y4 cells; type: cell-based, murine
Procedure: (§1) MLO-Y4 osteocytic cells were incubated for 25 minutes in serum -free medium. […] Cell lysates were prepared and proteins were separated by electrophoresis in polyacrylamide gels and transferred to PVDF membranes. Western blotting was performed using a specific antibody recognizing phosphorylated ERKs 1 and 2, followed by reblotting with an antibody recognizing total ERKs. Blots were developed by enhanced chemiluminescence.
MLO-Y4 cells were incubated for 25 minutes in serum-free medium in the presence or absence of 50 μM PD98059. […] Cell lysates were prepared and proteins were separated by electrophoresis in polyacrylamide gels and transferred to PVDF membranes. Western blotting was performed using a specific antibody recognizing phosphorylated ERKs 1 and 2, followed by reblotting with an antibody recognizing total ERKs. Blots were developed by enhanced chemiluminescence.
as §1, with “In this experiment, MLO-Y4” for “MLO-Y4”, “serum-free” for “serum -free”, “extracellular signal regulated kinases” for “ERKs”, “extracellular signal regulated kinases.” for “ERKs.”, “chemiluminescence. […] This effect is too rapid to be accounted for by the classical mechanism of estrogen action.” for “chemiluminescence.”
In this experiment, MLO-Y4 osteocytic cells were incubated for 25 minutes in serum-free medium in the presence or absence of 50 μM PD98059. […] Cell lysates were prepared and proteins were separated by electrophoresis in polyacrylamide gels and transferred to PVDF membranes. Western blotting was performed using a specific antibody recognizing phosphorylated extracellular signal regulated kinases 1 and 2, followed by reblotting with an antibody recognizing total extracellular signal regulated kinases. Blots were developed by enhanced chemiluminescence.

[5] = biological target: T2, human ERα (Homo sapiens, UniProt P03372); experiment: ERE-luciferase reporter in 293 cells overexpressing hERα; type: cell-based; conditions: 3 copies of ERE driving luciferase
T2 construct: expressed in transfected cells; host or cells: 293 human embryonic kidney cells
T2 sequence (P03372 1-595): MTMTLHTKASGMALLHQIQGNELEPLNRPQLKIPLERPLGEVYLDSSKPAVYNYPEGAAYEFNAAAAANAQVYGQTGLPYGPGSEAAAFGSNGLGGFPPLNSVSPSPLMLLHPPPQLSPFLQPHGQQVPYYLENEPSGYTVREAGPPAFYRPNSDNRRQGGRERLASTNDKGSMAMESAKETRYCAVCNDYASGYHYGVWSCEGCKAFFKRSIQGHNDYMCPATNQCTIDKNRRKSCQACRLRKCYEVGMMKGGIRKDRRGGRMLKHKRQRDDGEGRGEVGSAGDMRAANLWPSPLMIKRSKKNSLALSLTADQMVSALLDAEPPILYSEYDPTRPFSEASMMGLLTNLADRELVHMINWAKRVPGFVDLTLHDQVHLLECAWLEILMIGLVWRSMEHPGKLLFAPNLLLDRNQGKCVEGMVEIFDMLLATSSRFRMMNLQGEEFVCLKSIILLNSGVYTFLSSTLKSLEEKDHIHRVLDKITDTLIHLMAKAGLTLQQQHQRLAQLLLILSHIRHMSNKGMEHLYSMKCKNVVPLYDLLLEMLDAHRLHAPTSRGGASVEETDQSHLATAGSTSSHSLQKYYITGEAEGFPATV
From the text: The human ERα was overexpressed in 293 cells lacking ERα along with a reporter construct containing 3 copies of a n estrogen response element driving the luciferase gene. Light units were counted and normalized to coexpressed b-galactosidase activity to control for differences in transfection efficiency. Results represent percent stimulation compared to ERα transfected cells, but not treated with the two agents. Each bar represents mean of duplicate experiments +/−SEM. *p<0.001 vs. cells not exposed to the sterols.
In this experiment, hERα was overexpressed in 293 cells (which lack constitutive ERα) along with a reporter construct containing 3 copies of an estrogen response element driving the luciferase gene. Light units were counted and normalized to coexpressed β-galactosidase activity to control for differences in transfection efficiency.

## C[C@@]12CCC[C@H]1[C@@H]1CCc3cc(O)ccc3[C@H]1CC2 [estratriene-3-ol]
[1]
  potency in inhibiting apoptosis relative to 17β estradiol: as potent a s 17β estradiol
[1]; pretreated 1 hour before etoposide, apoptosis after 6 hours by trypan blue uptake
  inhibition of etoposide-induced osteoblastic cell apoptosis: inhibition of etoposide-induced osteoblastic cell apoptosis was demonstrated
[1]; test agent 10^−8 M, ICI182,780 10^−7 M, 1 h pretreatment
  anti-apoptotic effect on osteoblastic cells after pretreatment with ICI182,780: abrogated
[2]; ICI182,780 10^−7 M, 1 h pretreatment
  antiapoptotic effect on osteocytes after pretreatment with ICI182,780: abrogated
[2]; MLO-Y4, pretreated 1 h before etoposide, apoptosis after 6 h
  inhibition of etoposide-induced apoptosis of osteocytic cell line: dose-dependently inhibited
[3]
  inhibition of etoposide-induced apoptosis in HeLa cells transfected with estrogen receptor β: potently inhibited
[4]; 10^−8 M, 5, 15 or 30 minutes
  activation (phosphorylation) of ERKs: activated
[4]; 10^−8 M, 5 minutes, 50 μM PD98059
  ability to activate ERKs in the presence of PD98059: abrogated
[5]
  transactivation of an estrogen response element through estrogen receptor α: did not transactivate
